Results taken from PubChem BioAssay (NCI).
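Step 1: Grow cells in 96-well plates. Step 2: Expose to compound for 48 hours at 5 concentrations. Step 3: Interpolate endpoints linearly; if unreached, use highest concentration. At the GI50, growth is halved. TGI marks complete inhibition of growth.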

How the values were obtained:
Test in all cases: growth of human tumour cells (NCI), 48 h; in the data active = GI50 below about 0.43 µM; inactive = the rest
HCT-116 colon = tested on: HCT-116 colon
MDA-MB-435 = tested on: MDA-MB-435
HOP-62 NSCLC = tested on: HOP-62 NSCLC
OVCAR-8 ovarian = tested on: OVCAR-8 ovarian
A498 renal = tested on: A498 renal
OVCAR-3 ovarian = tested on: OVCAR-3 ovarian
SN12C renal = tested on: SN12C renal
SK-MEL-2 melanoma = tested on: SK-MEL-2 melanoma
HL-60(TB) leukemia = tested on: HL-60(TB) leukemia
NCI-H522 lung = tested on: NCI-H522 lung
U251 CNS = tested on: U251 CNS
K-562 leukemia = tested on: K-562 leukemia
HS 578T breast = tested on: HS 578T breast
TK-10 renal = tested on: TK-10 renal
NCI-H23 lung = tested on: NCI-H23 lung
RXF 393 renal = tested on: RXF 393 renal
COLO 205 colon = tested on: COLO 205 colon
UACC-62 melanoma = tested on: UACC-62 melanoma
NCI/ADR-RES ovarian = tested on: NCI/ADR-RES ovarian
ACHN renal = tested on: ACHN renal
SK-MEL-28 melanoma = tested on: SK-MEL-28 melanoma
LOX IMVI melanoma = tested on: LOX IMVI melanoma
SNB-19 CNS = tested on: SNB-19 CNS
A549 NSCLC = tested on: A549 NSCLC
T-47D breast = tested on: T-47D breast
NCI-H460 lung = tested on: NCI-H460 lung
EKVX NSCLC = tested on: EKVX NSCLC
SF-295 CNS = tested on: SF-295 CNS
SW-620 colon = tested on: SW-620 colon
SF-268 CNS = tested on: SF-268 CNS
SNB-75 CNS = tested on: SNB-75 CNS
MDA-MB-231 breast = tested on: MDA-MB-231 breast
SR leukemia = tested on: SR leukemia
OVCAR-4 ovarian = tested on: OVCAR-4 ovarian
MOLT-4 leukemia = tested on: MOLT-4 leukemia
SK-OV-3 ovarian = tested on: SK-OV-3 ovarian
HCC-2998 colon = tested on: HCC-2998 colon
CCRF-CEM leukemia = tested on: CCRF-CEM leukemia
SF-539 CNS = tested on: SF-539 CNS
NCI-H226 lung = tested on: NCI-H226 lung
RPMI-8226 leukemia = tested on: RPMI-8226 leukemia
HOP-92 NSCLC = tested on: HOP-92 NSCLC
HT29 colon = tested on: HT29 colon
KM12 colon = tested on: KM12 colon
IGROV1 ovarian = tested on: IGROV1 ovarian
UO-31 renal = tested on: UO-31 renal
M14 melanoma = tested on: M14 melanoma
CAKI-1 renal = tested on: CAKI-1 renal
MCF7 breast = tested on: MCF7 breast
786-0 renal = tested on: 786-0 renal
HCT-15 colon = tested on: HCT-15 colon
SK-MEL-5 melanoma = tested on: SK-MEL-5 melanoma
BT-549 breast = tested on: BT-549 breast
UACC-257 melanoma = tested on: UACC-257 melanoma
MALME-3M melanoma = tested on: MALME-3M melanoma
DU-145 prostate = tested on: DU-145 prostate
PC-3 prostate = tested on: PC-3 prostate
OVCAR-5 ovarian = tested on: OVCAR-5 ovarian

Cn1cc(-c2ccc3nc(-c4ccc(CC(=O)Nc5cc(C(C)(C)C)no5)cc4)cnc3c2)cn1
269 nM: TGI (UO-31 renal)
> 840 nM: TGI (SNB-75 CNS)
185 nM: TGI (A498 renal)
664 nM: TGI (MDA-MB-231 breast)
inactive: GI50 (HL-60(TB) leukemia) 735 nM | GI50 (NCI-H23 lung) 895 nM | GI50 (SNB-19 CNS) > 1480 nM | GI50 (HCC-2998 colon) > 1690 nM | GI50 (CCRF-CEM leukemia) 692 nM
712 nM: TGI (SK-OV-3 ovarian)
active: GI50 (HCT-116 colon) 29 nM | GI50 (MDA-MB-435) 50.5 nM | GI50 (HOP-62 NSCLC) 46.5 nM | GI50 (OVCAR-8 ovarian) 54.8 nM | GI50 (A498 renal) 43.9 nM | GI50 (OVCAR-3 ovarian) 59.2 nM | GI50 (SN12C renal) 26.8 nM | GI50 (SK-MEL-2 melanoma) 23.7 nM | GI50 (NCI-H522 lung) 49.8 nM | GI50 (U251 CNS) 29.8 nM | GI50 (K-562 leukemia) 17 nM | GI50 (HS 578T breast) 24 nM | GI50 (TK-10 renal) 13.9 nM | GI50 (RXF 393 renal) 19.5 nM | GI50 (UACC-62 melanoma) 29.7 nM | GI50 (NCI/ADR-RES ovarian) 61.2 nM | GI50 (ACHN renal) 14.4 nM | GI50 (SK-MEL-28 melanoma) 104 nM | GI50 (LOX IMVI melanoma) 36 nM | GI50 (A549 NSCLC) 57.7 nM | GI50 (T-47D breast) 82.7 nM | GI50 (NCI-H460 lung) 28.9 nM | GI50 (EKVX NSCLC) 143 nM | GI50 (SF-295 CNS) 56.3 nM | GI50 (SW-620 colon) 47.7 nM | GI50 (SF-268 CNS) 39.9 nM | GI50 (SNB-75 CNS) 16.1 nM | GI50 (MDA-MB-231 breast) 39.2 nM | GI50 (SR leukemia) < 44.5 nM | GI50 (OVCAR-4 ovarian) 19.3 nM | GI50 (MOLT-4 leukemia) 102 nM | GI50 (SK-OV-3 ovarian) 93.8 nM | GI50 (SF-539 CNS) 27.4 nM | GI50 (NCI-H226 lung) 44.4 nM | GI50 (RPMI-8226 leukemia) 56 nM | GI50 (HOP-92 NSCLC) 49.5 nM | GI50 (HT29 colon) 85.9 nM | GI50 (KM12 colon) 1.73 nM | GI50 (IGROV1 ovarian) 13 nM | GI50 (UO-31 renal) 52.1 nM | GI50 (M14 melanoma) 17.2 nM | GI50 (CAKI-1 renal) 10.2 nM | GI50 (786-0 renal) 37.5 nM | GI50 (HCT-15 colon) 19.7 nM | GI50 (BT-549 breast) 206 nM | GI50 (UACC-257 melanoma) 78.4 nM | GI50 (MALME-3M melanoma) 21 nM | GI50 (DU-145 prostate) 29.6 nM | GI50 (PC-3 prostate) 112 nM | GI50 (OVCAR-5 ovarian) 82.8 nM
> 3000 nM: TGI (HCT-116 colon) | TGI (MDA-MB-435) | TGI (HOP-62 NSCLC) | TGI (OVCAR-8 ovarian) | TGI (OVCAR-3 ovarian) | TGI (SN12C renal) | TGI (HL-60(TB) leukemia) | TGI (NCI-H522 lung) | TGI (U251 CNS) | TGI (K-562 leukemia) | TGI (HS 578T breast) | TGI (TK-10 renal) | TGI (NCI-H23 lung) | TGI (RXF 393 renal) | TGI (COLO 205 colon) | TGI (UACC-62 melanoma) | TGI (NCI/ADR-RES ovarian) | TGI (ACHN renal) | TGI (SK-MEL-28 melanoma) | TGI (LOX IMVI melanoma) | TGI (SNB-19 CNS) | TGI (A549 NSCLC) | TGI (T-47D breast) | TGI (NCI-H460 lung) | TGI (EKVX NSCLC) | TGI (SF-295 CNS) | TGI (SW-620 colon) | TGI (SF-268 CNS) | TGI (SR leukemia) | TGI (OVCAR-4 ovarian) | TGI (MOLT-4 leukemia) | TGI (HCC-2998 colon) | TGI (CCRF-CEM leukemia) | TGI (SF-539 CNS) | TGI (NCI-H226 lung) | TGI (RPMI-8226 leukemia) | TGI (HOP-92 NSCLC) | TGI (HT29 colon) | TGI (KM12 colon) | TGI (M14 melanoma) | TGI (CAKI-1 renal) | TGI (MCF7 breast) | TGI (786-0 renal) | TGI (HCT-15 colon) | TGI (SK-MEL-5 melanoma) | TGI (BT-549 breast) | TGI (UACC-257 melanoma) | TGI (DU-145 prostate) | TGI (PC-3 prostate) | TGI (OVCAR-5 ovarian)
> 1210 nM: TGI (IGROV1 ovarian)
581 nM: TGI (SK-MEL-2 melanoma)
> 694 nM: TGI (MALME-3M melanoma)
